Reference: US20240108702A1, “Use Of Naturally Occurring Cyclic Peptides For Treatment Of SARS-COV-2 Infection” (The University of Southern California, priority 2021, published 2024)
Where two headings read alike, the source gives them in different places. Where a SMILES comes first, the peptide text is derived from it. Bridges are numbered along the chain shown (N, C = ends).

Conditions: for LOAEL: i.v.
[1] = female rats, 5 mg/kg/day, Day 8, median
[2] = female rats, 10 mg/kg/day, Day 8, median
[3] = female rats, 20 mg/kg, Day 2, median
[4] = male rats, 5 mg/kg/day, Day 8, median
[5] = male rats, 10 mg/kg/day, Day 8, median
[6] = male rats, 20 mg/kg, Day 2, median

SMILES: CC[C@H](C)[C@@H]1NC(=O)[C@@H]2CSSC[C@H](NC(=O)[C@H](CCCNC(=N)N)NC(=O)[C@@H]3CSSC[C@H](NC1=O)C(=O)N[C@@H]([C@@H](C)O)C(=O)N[C@@H](CCCNC(=N)N)C(=O)NCC(=O)N[C@@H](Cc1ccccc1)C(=O)N3)C(=O)N[C@@H](CC(C)C)C(=O)N[C@H]1CSSC[C@H](NC(=O)[C@H](C(C)C)NC(=O)CNC(=O)[C@H](CCCNC(=N)N)NC(=O)[C@H](CCCNC(=N)N)NC1=O)C(=O)N[C@@H](CCCNC(=N)N)C(=O)N2 [Peptide 1] (cyclo(GFCRCLCRRGVCRCICTR); disulfide 3-16, 5-14, 7-12)
- LOAEL (Sprague-Dawley rats, study duration 7 days (Table 8)): 20 mg/kg/day
- mortality (determined unrelated to treatment) (female rats, 5 mg/kg dose group, found dead Day 15): 1 out of 16
- A/G [1]: 2.10
- ALP [1]: 92.0 U/L
- ALT [1]: 35.0 U/L
- APTT [1]: 10.6 s
- AST [1]: 139.0 U/L
- Albumin [1]: 3.9 g/dL
- Basophils [1]: 0.3%
- Basophils absolute [1]: 0.02 10^3/mm^3
- CK [1]: 792 U/L
- Calcium [1]: 9.80 mg/dL
- Chloride [1]: 105.0 mmol/L
- Cholesterol [1]: 55.0 mg/dL
- Creatinine [1]: 0.3 mg/dL
- Eosinophils [1]: 3.6%
- Eosinophils absolute [1]: 0.30 10^3/mm^3
- Fibrinogen [1]: 223 mg/dL
- GGT [1]: 0.0 U/L
- Globulin [1]: 1.8 g/dL
- Glucose [1]: 97 mg/dL
- HDW [1]: 2.37 g/dL
- Hct [1]: 40.5%
- Hemoglobin [1]: 13.5 g/dL
- K [1]: 4.9 mmol/L
- LUC [1]: 0.3%
- LUC absolute [1]: 0.02 10^3/mm^3
- Lymphocyte absolute [1]: 4.78 10^3/mm^3
- Lymphocytes [1]: 68.1%
- MCH [1]: 19.1 pg
- MCHC [1]: 33.4 g/dL
- MCV [1]: 57.9 fL
- Monocyte absolute [1]: 0.17 10^3/mm^3
- Monocytes [1]: 2.6%
- Na [1]: 143 mmol/L
- Neutrophil absolute [1]: 1.33 10^3/mm^3
- Neutrophils [1]: 26.7%
- PT [1]: 16.3 s
- Phos [1]: 7.3 mg/dL
- Platelets [1]: 801 10^3/mm^3
- RBC [1]: 6.88 10^6/mm^3
- RDW [1]: 12.7%
- Reticulocytes [1]: 3.9%
- Reticulocytes absolute [1]: 256.7 10^3/mm^3
- T-Bil [1]: 0.00 mg/dL
- TP [1]: 5.8 g/dL
- Triglycerides [1]: 25 mg/dL
- Urea N [1]: 20 mg/dL
- WBC [1]: 6.50 10^3/mm^3
- A/G [2]: 2.15
- ALP [2]: 109.5 U/L
- ALT [2]: 32.5 U/L
- APTT [2]: 10.9 s
- AST [2]: 122.0 U/L
- Albumin [2]: 3.9 g/dL
- Basophils [2]: 0.4%
- Basophils absolute [2]: 0.04 10^3/mm^3
- CK [2]: 474 U/L
- Calcium [2]: 9.95 mg/dL
- Chloride [2]: 105.0 mmol/L
- Cholesterol [2]: 55.0 mg/dL
- Creatinine [2]: 0.3 mg/dL
- Eosinophils [2]: 3.3%
- Eosinophils absolute [2]: 0.33 10^3/mm^3
- Fibrinogen [2]: 283 mg/dL
- GGT [2]: 0.0 U/L
- Globulin [2]: 1.8 g/dL
- Glucose [2]: 99 mg/dL
- HDW [2]: 2.45 g/dL
- Hct [2]: 41.2%
- Hemoglobin [2]: 13.7 g/dL
- K [2]: 5.05 mmol/L
- LUC [2]: 0.35%
- LUC absolute [2]: 0.04 10^3/mm^3
- Lymphocyte absolute [2]: 7.13 10^3/mm^3
- Lymphocytes [2]: 72.0%
- MCH [2]: 19.0 pg
- MCHC [2]: 33.3 g/dL
- MCV [2]: 57.3 fL
- Monocyte absolute [2]: 0.39 10^3/mm^3
- Monocytes [2]: 3.5%
- Na [2]: 142.5 mmol/L
- Neutrophil absolute [2]: 2.18 10^3/mm^3
- Neutrophils [2]: 19.9%
- PT [2]: 17.1 s
- Phos [2]: 7.05 mg/dL
- Platelets [2]: 939 10^3/mm^3
- RBC [2]: 7.21 10^6/mm^3
- RDW [2]: 13.0%
- Reticulocytes [2]: 4.1%
- Reticulocytes absolute [2]: 277.3 10^3/mm^3
- T-Bil [2]: 0.00 mg/dL
- TP [2]: 5.7 g/dL
- Triglycerides [2]: 26 mg/dL
- Urea N [2]: 21 mg/dL
- WBC [2]: 10.75 10^3/mm^3
- A/G [3]: 3.00
- ALP [3]: 142.0 U/L
- ALT [3]: 62.0 U/L
- APTT [3]: 29.2 s
- AST [3]: 397.0 U/L
- Albumin [3]: 3.0 g/dL
- Basophils [3]: 0.5%
- Basophils absolute [3]: 0.06 10^3/mm^3
- CK [3]: 1,506 U/L
- Calcium [3]: 10.30 mg/dL
- Chloride [3]: 104.0 mmol/L
- Cholesterol [3]: 52.0 mg/dL
- Creatinine [3]: 0.5 mg/dL
- Eosinophils [3]: 1.5%
- Eosinophils absolute [3]: 0.13 10^3/mm^3
- Fibrinogen [3]: 83 mg/dL
- GGT [3]: 4.0 U/L
- Globulin [3]: 1.0 g/dL
- Glucose [3]: 218 mg/dL
- HDW [3]: 2.37 g/dL
- Hct [3]: 46.9%
- Hemoglobin [3]: 15.2 g/dL
- K [3]: 4.9 mmol/L
- LUC [3]: 0.5%
- LUC absolute [3]: 0.05 10^3/mm^3
- Lymphocyte absolute [3]: 5.56 10^3/mm^3
- Lymphocytes [3]: 60.5%
- MCH [3]: 19.6 pg
- MCHC [3]: 32.3 g/dL
- MCV [3]: 61.0 fL
- Monocyte absolute [3]: 0.33 10^3/mm^3
- Monocytes [3]: 3.8%
- Na [3]: 141 mmol/L
- Neutrophil absolute [3]: 2.55 10^3/mm^3
- Neutrophils [3]: 33.6%
- PT [3]: 23.5 s
- Phos [3]: 9.3 mg/dL
- Platelets [3]: 604 10^3/mm^3
- RBC [3]: 7.63 10^6/mm^3
- RDW [3]: 12.2%
- Reticulocytes [3]: 5.3%
- Reticulocytes absolute [3]: 326.0 10^3/mm^3
- T-Bil [3]: 0.00 mg/dL
- TP [3]: 3.90 g/dL
- Triglycerides [3]: 106 mg/dL
- Urea N [3]: 20 mg/dL
- WBC [3]: 8.15 10^3/mm^3
- microscopic findings, liver (female rats, 5 and 10 mg/kg/day, end of treatment, non-adverse, recoverable): minimal to mild liver necrosis
- microscopic findings, adrenal (male and female rats, 20 mg/kg): Mild to severe adrenal necrosis
- body weight (male and female rats, 20 mg/kg dosing group): significant decreases in body weights
- A/G [4]: 2.2
- ALP [4]: 212.0 U/L
- ALT [4]: 40.0 U/L
- APTT [4]: 14.8 s
- AST [4]: 133.0 U/L
- Albumin [4]: 3.8 g/dL
- Basophils [4]: 0.3%
- Basophils absolute [4]: 0.03 10^3/mm^3
- CK [4]: 766 U/L
- Calcium [4]: 9.75 mg/dL
- Chloride [4]: 104.5 mmol/L
- Cholesterol [4]: 70.5 mg/dL
- Creatinine [4]: 0.2 mg/dL
- Eosinophils [4]: 3.9%
- Eosinophils absolute [4]: 0.37 10^3/mm^3
- Fibrinogen [4]: 263 mg/dL
- GGT [4]: 0.0 U/L
- Globulin [4]: 1.7 g/dL
- Glucose [4]: 73 mg/dL
- HDW [4]: 2.30 g/dL
- Hct [4]: 43.8%
- Hemoglobin [4]: 14.1 g/dL
- K [4]: 5.15 mmol/L
- LUC [4]: 0.3%
- LUC absolute [4]: 0.03 10^3/mm^3
- Lymphocyte absolute [4]: 6.03 10^3/mm^3
- Lymphocytes [4]: 71.8%
- MCH [4]: 20.0 pg
- MCHC [4]: 32.1 g/dL
- MCV [4]: 61.8 fL
- Monocyte absolute [4]: 0.22 10^3/mm^3
- Monocytes [4]: 2.9%
- Na [4]: 144 mmol/L
- Neutrophil absolute [4]: 2.04 10^3/mm^3
- Neutrophils [4]: 20.2%
- PT [4]: 16.0 s
- Phos [4]: 8.45 mg/dL
- Platelets [4]: 1,052 10^3/mm^3
- RBC [4]: 7.06 10^6/mm^3
- RDW [4]: 14.0%
- Reticulocytes [4]: 5.2%
- Reticulocytes absolute [4]: 359.7 10^3/mm^3
- T-Bil [4]: 0.00 mg/dL
- TP [4]: 5.5 g/dL
- Triglycerides [4]: 37 mg/dL
- Urea N [4]: 16.5 mg/dL
- WBC [4]: 8.40 10^3/mm^3
- A/G [5]: 2.35
- ALP [5]: 212.5 U/L
- ALT [5]: 32.5 U/L
- APTT [5]: 14.6 s
- AST [5]: 113.5 U/L
- Albumin [5]: 3.7 g/dL
- Basophils [5]: 0.3%
- Basophils absolute [5]: 0.03 10^3/mm^3
- CK [5]: 613 U/L
- Calcium [5]: 9.70 mg/dL
- Chloride [5]: 105.0 mmol/L
- Cholesterol [5]: 66.0 mg/dL
- Creatinine [5]: 0.3 mg/dL
- Eosinophils [5]: 3.0%
- Eosinophils absolute [5]: 0.31 10^3/mm^3
- Fibrinogen [5]: 261 mg/dL
- GGT [5]: 0.0 U/L
- Globulin [5]: 1.6 g/dL
- Glucose [5]: 83 mg/dL
- HDW [5]: 2.20 g/dL
- Hct [5]: 43.7%
- Hemoglobin [5]: 14.2 g/dL
- K [5]: 5.1 mmol/L
- LUC [5]: 0.3%
- LUC absolute [5]: 0.03 10^3/mm^3
- Lymphocyte absolute [5]: 6.69 10^3/mm^3
- Lymphocytes [5]: 70.9%
- MCH [5]: 20.2 pg
- MCHC [5]: 32.4 g/dL
- MCV [5]: 62.6 fL
- Monocyte absolute [5]: 0.28 10^3/mm^3
- Monocytes [5]: 2.7%
- Na [5]: 144 mmol/L
- Neutrophil absolute [5]: 1.85 10^3/mm^3
- Neutrophils [5]: 22.6%
- PT [5]: 17.5 s
- Phos [5]: 8.6 mg/dL
- Platelets [5]: 1,086 10^3/mm^3
- RBC [5]: 7.06 10^6/mm^3
- RDW [5]: 13.1%
- Reticulocytes [5]: 4.6%
- Reticulocytes absolute [5]: 314.2 10^3/mm^3
- T-Bil [5]: 0.00 mg/dL
- TP [5]: 5.35 g/dL
- Triglycerides [5]: 29 mg/dL
- Urea N [5]: 19.0 mg/dL
- WBC [5]: 10.05 10^3/mm^3
- A/G [6]: 2.70
- ALP [6]: 232.0 U/L
- ALT [6]: 74.0 U/L
- APTT [6]: 18.5 s
- AST [6]: 245.0 U/L
- Albumin [6]: 2.7 g/dL
- Basophils [6]: 0.2%
- Basophils absolute [6]: 0.03 10^3/mm^3
- CK [6]: 707 U/L
- Calcium [6]: 9.40 mg/dL
- Chloride [6]: 101.0 mmol/L
- Cholesterol [6]: 67.0 mg/dL
- Creatinine [6]: 0.4 mg/dL
- Eosinophils [6]: 1.1%
- Eosinophils absolute [6]: 0.15 10^3/mm^3
- Fibrinogen [6]: 98 mg/dL
- GGT [6]: 0.0 U/L
- Globulin [6]: 1.0 g/dL
- Glucose [6]: 175 mg/dL
- HDW [6]: 2.44 g/dL
- Hct [6]: 37.3%
- Hemoglobin [6]: 12.1 g/dL
- K [6]: 5.1 mmol/L
- LUC [6]: 0.5%
- LUC absolute [6]: 0.07 10^3/mm^3
- Lymphocyte absolute [6]: 4.24 10^3/mm^3
- Lymphocytes [6]: 30.9%
- MCH [6]: 20.0 pg
- MCHC [6]: 31.8 g/dL
- MCV [6]: 62.5 fL
- Monocyte absolute [6]: 0.93 10^3/mm^3
- Monocytes [6]: 8.1%
- Na [6]: 140 mmol/L
- Neutrophil absolute [6]: 8.40 10^3/mm^3
- Neutrophils [6]: 61.1%
- PT [6]: 21.3 s
- Phos [6]: 9.3 mg/dL
- Platelets [6]: 728 10^3/mm^3
- RBC [6]: 6.04 10^6/mm^3
- RDW [6]: 14.3%
- Reticulocytes [6]: 6.4%
- Reticulocytes absolute [6]: 373.3 10^3/mm^3
- T-Bil [6]: 0.10 mg/dL
- TP [6]: 3.7 g/dL
- Triglycerides [6]: 193 mg/dL
- Urea N [6]: 28 mg/dL
- WBC [6]: 13.70 10^3/mm^3
- microscopic findings, liver (male rats, 20 mg/kg, adverse): minimal to moderate liver necrosis
- LOAEL (rats): 20 mg/kg
- clinical signs (rats, once daily i.v. infusion 5 and 10 mg/kg/day, temporary, resolved in recovery): non-adverse, treatment-related clinical signs
- acute, treatment-related mortality (rats, single i.v. 20 mg/kg, Day 1): 5 out of 12
